From patent publication US6541468B1, “Indolocarbazole derivatives useful for the treatment of neurodegenerative diseases and cancer” (Bayer Corporation, priority 1998, dated 2003)

| Compound | melting point [°C] |
| --- | --- |
| O=C1NC(=O)c2c1c1c3ccccc3n3c1c1c2c2ccccc2n1C1CC3CC1=O (centres unmarked) [Example 3, 9,12-Methano-1H-diindolo[1,2,3-fg:3′,2′,1′-kl]pyrrolo[3,4-I][1,6]benzodiazocine-1,3,10 (2H,9H)-trone, 11,12-dihydro] | > 230 |
| O=C1NC(=O)c2c1c1c3ccccc3n3c1c1c2c2ccccc2n1C1CC3[C@@H](O)[C@H]1O [Example 1, 9,12-Methano-1H-diindolo[1,2,3-fg:3′,2′,1′-kl]pyrrolo[3,4-][1,6]benzodiazocine-1,3 (2H)-dione,9,10,11,12-tetrahydro-10,11-dihydroxy-(9α,10α,11α,12α)] | > 200 |
